Test results: patent US7612064B2, “Sulfopyrroles” (Takeda Pharmaceutical Company Limited, priority 2003, dated 2009)

Legend:
HeLa = assay: MTS proliferation assay; format: cell-based, human; details: 72 h
Method: (§1) The assay is performed in 96 well tissue culture plates. […] The test compounds are added in 20 μl complete medium containing max 5% DMSO. The final compound concentrations in the assays are 10 μM, 3 μM, 1 μM and 0.3 μM, respectively. The assay plates are incubated for 72 h at culture conditions. The MTS reagent is prepared according to the manufacturer's protocol (Promega G1111). 20 μl MTS reagent are added to each well, the assay plates are quickly spun and incubated for another 3 h at culture conditions. Subsequently, the plates are shortly shacked and absorption measured with a microplate-reader at 492 nm.

Jurkat = assay: MTS proliferation assay; format: cell-based, human; details: 72 h
Method: as §1

MRC5 = assay: MTS proliferation assay; format: cell-based; details: MRC5, 72 h
Method: as §1

[1] = Hoechst 33342 nuclear staining; format: cell-based; details: for Hoechst 33342 nuclear staining score, HeLa: HeLa cells; for Hoechst 33342 nuclear staining score, Jurkat: Jurkat cells; for Hoechst 33342 nuclear staining score, H460: H460 cells; for Hoechst 33342 nuclear staining score, Jily: Jily cells; for Hoechst 33342 nuclear staining score, MRC5: MRC5 cells;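 for all read-outs here: apoptotic nuclei scored 0 none 1 weak under 50% of cells 2 strong over 50% of cells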
Method: This assay is performed in 96 well tissue culture plates. Appropriate number of cells (adherent cells: 3-5*10^3, suspension cells: 8-10*10^3) are being seeded out in 80 μl complete medium. Adherent cells are incubated for 24 h for proper spreading out before addition of test compounds while suspension cells are immediately treated with test compounds after seeding out. The test compounds are added in 20 μl complete medium containing max 5% DMSO. […] […] The assay plates are then further incubated for 30 min and subsequently analyzed with a standard inverted fluorescence microscope.
The readout allows the determination of the fraction of apoptotic nuclei as well as other morphological criteria specific for apoptosis as a function of the treatment. The following scores are used: 0 relating to no activity, 1 relating to weak activity comprising less than 50% of the cells and score 2 relating to strong activity comprising more than 50% of the cells.

[2] = conc 0.1 (final concentrations in μM), 24 h or 48 h incubation
[3] = conc 0.3 (final concentrations in μM), 24 h or 48 h incubation
[4] = conc 1 (final concentrations in μM), 24 h or 48 h incubation
[5] = conc 3 (final concentrations in μM), 24 h or 48 h incubation
[6] = conc 10 (final concentrations in μM), 24 h or 48 h incubation

CCN(CC)CCCNCc1cc(-c2ccc3c(c2)OCO3)n(S(=O)(=O)c2ccc(C)cc2)c1 [Example 34]
IC50 (HeLa): > 1 µM
IC50 (Jurkat): > 1 µM
IC50 (MRC5): > 1 µM
Hoechst 33342 nuclear staining score, HeLa [1, 2]: 0
Hoechst 33342 nuclear staining score, HeLa [1, 3]: 0
Hoechst 33342 nuclear staining score, HeLa [1, 4]: 0
Hoechst 33342 nuclear staining score, HeLa [1, 5]: 0
Hoechst 33342 nuclear staining score, Jurkat [1, 2]: 0
Hoechst 33342 nuclear staining score, Jurkat [1, 3]: 0
Hoechst 33342 nuclear staining score, Jurkat [1, 4]: 0
Hoechst 33342 nuclear staining score, Jurkat [1, 5]: 0

Cc1ccc(S(=O)(=O)n2cc(CNCCCN3CCN(C)CC3)cc2-c2ccc3c(c2)OCO3)cc1 [Example 12]
IC50 (HeLa): > 1 µM
IC50 (Jurkat): > 1 µM
IC50 (MRC5): > 1 µM
Hoechst 33342 nuclear staining score, HeLa [1, 2]: 0
Hoechst 33342 nuclear staining score, HeLa [1, 3]: 0
Hoechst 33342 nuclear staining score, HeLa [1, 4]: 0
Hoechst 33342 nuclear staining score, HeLa [1, 5]: 0
Hoechst 33342 nuclear staining score, Jurkat [1, 2]: 0
Hoechst 33342 nuclear staining score, Jurkat [1, 3]: 0
Hoechst 33342 nuclear staining score, Jurkat [1, 4]: 0
Hoechst 33342 nuclear staining score, Jurkat [1, 5]: 0

COc1cc(-c2cc(CNc3ccc(N4CCOCC4)cc3)cn2S(=O)(=O)c2ccc(C)cc2)cc(OC)c1OC [Example 71]
IC50 (HeLa): < 1 µM
IC50 (Jurkat): < 1 µM
IC50 (MRC5): < 1 µM
Hoechst 33342 nuclear staining score, H460 ([1]; conc 0.1): 0
Hoechst 33342 nuclear staining score, H460 ([1]; conc 0.3): 0
Hoechst 33342 nuclear staining score, H460 ([1]; conc 1): 2 (strong activity comprising more than 50% of the cells)
Hoechst 33342 nuclear staining score, H460 ([1]; conc 3): 2 (strong activity comprising more than 50% of the cells)
Hoechst 33342 nuclear staining score, HeLa ([1]; conc 0.1): 0
Hoechst 33342 nuclear staining score, HeLa ([1]; conc 0.3): 0
Hoechst 33342 nuclear staining score, HeLa ([1]; conc 1): 2 (strong activity comprising more than 50% of the cells)
Hoechst 33342 nuclear staining score, HeLa ([1]; conc 3): 2 (strong activity comprising more than 50% of the cells)
Hoechst 33342 nuclear staining score, Jily ([1]; conc 0.1): 0
Hoechst 33342 nuclear staining score, Jily ([1]; conc 0.3): 0
Hoechst 33342 nuclear staining score, Jily ([1]; conc 1): 2 (strong activity comprising more than 50% of the cells)
Hoechst 33342 nuclear staining score, Jily ([1]; conc 3): 2 (strong activity comprising more than 50% of the cells)
Hoechst 33342 nuclear staining score, Jurkat ([1]; conc 0.1): 0
Hoechst 33342 nuclear staining score, Jurkat ([1]; conc 0.3): 2 (strong activity comprising more than 50% of the cells)
Hoechst 33342 nuclear staining score, Jurkat ([1]; conc 1): 2 (strong activity comprising more than 50% of the cells)
Hoechst 33342 nuclear staining score, Jurkat ([1]; conc 3): 2 (strong activity comprising more than 50% of the cells)
Hoechst 33342 nuclear staining score, MRC5 ([1]; conc 0.1): 0
Hoechst 33342 nuclear staining score, MRC5 ([1]; conc 0.3): 0
Hoechst 33342 nuclear staining score, MRC5 ([1]; conc 1): 2 (strong activity comprising more than 50% of the cells)
Hoechst 33342 nuclear staining score, MRC5 ([1]; conc 3): 2 (strong activity comprising more than 50% of the cells)
Hoechst 33342 nuclear staining score, PBLs ([1]; conc 0.1): 0
Hoechst 33342 nuclear staining score, PBLs ([1]; conc 0.3): 0
Hoechst 33342 nuclear staining score, PBLs ([1]; conc 1): 0
Hoechst 33342 nuclear staining score, PBLs ([1]; conc 3): 0

CCN(CC)CCN(C)Cc1cc(-c2ccc3c(c2)OCO3)n(S(=O)(=O)c2ccc(C)cc2)c1 [Example 19]
IC50 (HeLa): > 1 µM
IC50 (Jurkat): > 1 µM
IC50 (MRC5): > 1 µM
Hoechst 33342 nuclear staining score, HeLa [1, 2]: 0
Hoechst 33342 nuclear staining score, HeLa [1, 3]: 0
Hoechst 33342 nuclear staining score, HeLa [1, 4]: 0
Hoechst 33342 nuclear staining score, HeLa [1, 5]: 0
Hoechst 33342 nuclear staining score, Jurkat [1, 2]: 0
Hoechst 33342 nuclear staining score, Jurkat [1, 3]: 0
Hoechst 33342 nuclear staining score, Jurkat [1, 4]: 0
Hoechst 33342 nuclear staining score, Jurkat [1, 5]: 0

O=S(=O)(c1cccc(Cl)c1)n1cc(CNc2ccc(-n3ccnc3)cc2)cc1-c1ccc2c(c1)OCO2 [Example 74]
IC50 (HeLa): > 1 µM
IC50 (Jurkat): > 1 µM
IC50 (MRC5): > 1 µM
Hoechst 33342 nuclear staining score, H460 ([1]; conc 0.1): 0
Hoechst 33342 nuclear staining score, H460 ([1]; conc 0.3): 0
Hoechst 33342 nuclear staining score, H460 ([1]; conc 1): 0
Hoechst 33342 nuclear staining score, H460 ([1]; conc 3): 0
Hoechst 33342 nuclear staining score, HeLa ([1]; conc 0.1): 0
Hoechst 33342 nuclear staining score, HeLa ([1]; conc 0.3): 0
Hoechst 33342 nuclear staining score, HeLa ([1]; conc 1): 0
Hoechst 33342 nuclear staining score, HeLa ([1]; conc 3): 0
Hoechst 33342 nuclear staining score, Jily ([1]; conc 0.1): 0
Hoechst 33342 nuclear staining score, Jily ([1]; conc 0.3): 0
Hoechst 33342 nuclear staining score, Jily ([1]; conc 1): 0
Hoechst 33342 nuclear staining score, Jily ([1]; conc 3): 0
Hoechst 33342 nuclear staining score, Jurkat ([1]; conc 0.1): 0
Hoechst 33342 nuclear staining score, Jurkat ([1]; conc 0.3): 0
Hoechst 33342 nuclear staining score, Jurkat ([1]; conc 1): 0
Hoechst 33342 nuclear staining score, Jurkat ([1]; conc 3): 0
Hoechst 33342 nuclear staining score, MRC5 ([1]; conc 0.1): 0
Hoechst 33342 nuclear staining score, MRC5 ([1]; conc 0.3): 0
Hoechst 33342 nuclear staining score, MRC5 ([1]; conc 1): 0
Hoechst 33342 nuclear staining score, MRC5 ([1]; conc 3): 0
Hoechst 33342 nuclear staining score, PBLs ([1]; conc 0.1): 0
Hoechst 33342 nuclear staining score, PBLs ([1]; conc 0.3): 0
Hoechst 33342 nuclear staining score, PBLs ([1]; conc 1): 0
Hoechst 33342 nuclear staining score, PBLs ([1]; conc 3): 0

Cc1ccc(S(=O)(=O)n2cc(CN3CCN(c4ncccn4)CC3)cc2-c2ccc3c(c2)OCO3)cc1 [Example 28]
IC50 (HeLa): > 1 µM
IC50 (Jurkat): > 1 µM
IC50 (MRC5): > 1 µM
Hoechst 33342 nuclear staining score, HeLa [1, 2]: 0
Hoechst 33342 nuclear staining score, HeLa [1, 3]: 0
Hoechst 33342 nuclear staining score, HeLa [1, 4]: 0
Hoechst 33342 nuclear staining score, HeLa [1, 5]: 0
Hoechst 33342 nuclear staining score, Jurkat [1, 2]: 0
Hoechst 33342 nuclear staining score, Jurkat [1, 3]: 0
Hoechst 33342 nuclear staining score, Jurkat [1, 4]: 0
Hoechst 33342 nuclear staining score, Jurkat [1, 5]: 0

Cc1ccc(S(=O)(=O)n2cc(CNc3ccc(N4CCOCC4)cc3N3CCOCC3)cc2-c2ccc3c(c2)OCO3)cc1 [Example 39]
IC50 (HeLa): > 1 µM
IC50 (Jurkat): > 1 µM
IC50 (MRC5): > 1 µM
Hoechst 33342 nuclear staining score, HeLa [1, 3]: 0
Hoechst 33342 nuclear staining score, HeLa [1, 4]: 0
Hoechst 33342 nuclear staining score, HeLa [1, 5]: 0
Hoechst 33342 nuclear staining score, HeLa [1, 6]: 0
Hoechst 33342 nuclear staining score, Jurkat [1, 3]: 0
Hoechst 33342 nuclear staining score, Jurkat [1, 4]: 0
Hoechst 33342 nuclear staining score, Jurkat [1, 5]: 0
Hoechst 33342 nuclear staining score, Jurkat [1, 6]: 0

CCN1CCN(CCCNCc2cc(-c3ccc4c(c3)OCO4)n(S(=O)(=O)c3ccc(C)cc3)c2)CC1 [Example 29]
IC50 (HeLa): > 1 µM
IC50 (Jurkat): > 1 µM
IC50 (MRC5): > 1 µM
Hoechst 33342 nuclear staining score, HeLa [1, 2]: 0
Hoechst 33342 nuclear staining score, HeLa [1, 3]: 0
Hoechst 33342 nuclear staining score, HeLa [1, 4]: 0
Hoechst 33342 nuclear staining score, HeLa [1, 5]: 0
Hoechst 33342 nuclear staining score, Jurkat [1, 2]: 0
Hoechst 33342 nuclear staining score, Jurkat [1, 3]: 0
Hoechst 33342 nuclear staining score, Jurkat [1, 4]: 0
Hoechst 33342 nuclear staining score, Jurkat [1, 5]: 0

Cc1ccc(S(=O)(=O)n2cc(CNCCCN3CCN(Cc4ccccc4)CC3)cc2-c2ccc3c(c2)OCO3)cc1 [Example 23]
IC50 (HeLa): > 1 µM
IC50 (Jurkat): > 1 µM
IC50 (MRC5): > 1 µM
Hoechst 33342 nuclear staining score, HeLa [1, 2]: 0
Hoechst 33342 nuclear staining score, HeLa [1, 3]: 0
Hoechst 33342 nuclear staining score, HeLa [1, 4]: 0
Hoechst 33342 nuclear staining score, HeLa [1, 5]: 0
Hoechst 33342 nuclear staining score, Jurkat [1, 2]: 0
Hoechst 33342 nuclear staining score, Jurkat [1, 3]: 0
Hoechst 33342 nuclear staining score, Jurkat [1, 4]: 0
Hoechst 33342 nuclear staining score, Jurkat [1, 5]: 0
